Assay results reported in patent US7671057B2, “Therapeutic agent for type II diabetes comprising protease-inhibiting compound” (Ono Pharmaceutical Co., Ltd., priority 2004, dated 2010).
Entries after “also recorded” stand apart in the source; their conditions may differ.

Key:
KK-A^y/Ta Jcl mice [1] = assay: Plasma GLP-1, glucagon, blood-sugar, HbA1c and TG 30 min after forced oral administration on Day 28 (Example 3); format: in vivo, mouse
Experimental: (§1) On Day 28 of administration of each compound in the form of an admixture with a food, furthermore, each animal after blood had been drawn from the tail vein was treated through individual forced oral administration of the Test Compound 2 in the form of the solutions individually consisting of 0.2, 0.6, 2.0 and 6.0 mg/mL-0.5% CMC suspension in each 5 mL/kg portion, as well as the Control Compound 1 in the form of the solutions individually consisting of 2.0 and 6 mg/mL-0.5% CMC suspension in each 5 ml/kg portion, followed by blood drawing 30 min. later and autopsy to thereby measure the weights of the pancreas, liver and kidney, whereby the control group was treated through administration of the 0.5% CMC suspension in the same portion.
(§2) The blood samples taken from the tail vein on the respective specified days after the administration were subjected to measurement of the blood-sugar level in accordance with the method as described in Example 1, while the plasma glucagon level after the forced oral administration performed on Days 28 was measured in accordance with the ELISA method as described in Example 1. Also, the glycosylated hemoglobin (HbA1c) and GLP-1 levels were determined in accordance with the latex coagulation method and the ELISA method (YK160, GLP-1 EIA Kit, produced by K.K. Yanaihara Kenkyu-sho of Japan), respectively, while the TG level was measured in accordance with the method as described in Example 1. The total pancreatic insulin content after oral administration of each compound was determined by adding 75% ethanol to the isolated pancreas as frozen, followed by homogenization, and collecting the insulin fraction through Sep-Pak (C18; WATER) treatment of the supernatant liquid produced by centrifugation, followed by determination with the ELIZA method.

KK-A^y/Ta Jcl mice [2] = assay: Blood-sugar level at satiety, dose-ranging food admixture up to Day 28 (Example 3); format: in vivo, mouse; details: for Blood-sugar level: end of the test (Day 28)
Experimental: KK-A^y/Ta Jcl Mice (male, 6-weeks aged, the number of cases; 8 animals) were treated through individual administration, in the form of an admixture with a food, of the Test Compound 2 (N-allyl-N-{(2E)-3-[4-({4-[amino(imino)methyl]phenoxy}-carbonyl)phenyl]-2-methyl-2-propenoyl}glycine/dimethanesulfonate) of the present invention at the daily doses of 0.56 mg, 1.68 mg, 5.6 mg and 16.8 mg/100 g-food, respectively, and the Control Compound 1 (5-{4-[2-(5-ethylpyridine-2-yl)-ethoxy]benzyl}-1,3-thiazolidine-2,4-dion; pioglitazone) at the daily doses of 5.6 mg and 16.8 mg/100 g-food, respectively, […], whereby the control group was fed with an ordinary food alone.
Blood was drawn from the tail vein individually on the day preceding to administration of each compound in the form of an admixture with a food, and on Days 6, 11, 16, 21 and 28 of administration.
as §2

[3] = target: leukotriene B4 (LTB4) receptor (Homo sapiens, UniProt Q15722); details: cited from earlier work
Sequence of leukotriene B4 (LTB4) receptor (Q15722 whole entry): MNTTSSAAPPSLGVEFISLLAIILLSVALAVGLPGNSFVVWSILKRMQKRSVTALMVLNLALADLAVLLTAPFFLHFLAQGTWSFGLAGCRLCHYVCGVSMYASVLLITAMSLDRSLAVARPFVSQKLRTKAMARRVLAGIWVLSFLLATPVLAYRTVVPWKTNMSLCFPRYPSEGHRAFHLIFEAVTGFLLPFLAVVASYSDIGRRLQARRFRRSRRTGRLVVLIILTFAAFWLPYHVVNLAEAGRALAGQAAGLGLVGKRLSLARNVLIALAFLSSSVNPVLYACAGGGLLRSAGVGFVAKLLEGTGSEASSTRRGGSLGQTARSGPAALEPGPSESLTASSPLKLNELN

KK-A^y/Ta Jcl mice [4] = assay: Blood-sugar level, administration as admixture with food (Example 2); format: in vivo, mouse
Experimental: (§3) KK-A^y/Ta Jcl Mice (male, 6- to 7-weeks aged, the number of cases; 8 animals) were treated through individual administration, in the form of an admixture with a food, of the Test Compound 2 (N-allyl-N-{(2E)-3-[4-({4-[amino(imino)methyl]phenoxy}-carbonyl)phenyl]-2-methyl-2-propenoyl}glycine/dimethane-sulfonate) of the present invention and the Control Compound 1 (5-(4-[2-(5-ethylpyridine-2-yl)ethoxy]benzyl)-1,3-thiazolidine-2,4-dione; pioglitazone) at the daily dose of 16.8 mg/100 g-food for 7 consecutive days, whereby the control group was fed with an ordinary food alone.
(§4) Blood was drawn from the tail vein individually on the day (Day 1) preceding to administration of the Test Compound in the form of an admixture with a food, and on Days 2, 5, 7 and 14 of administration, and the blood samples were subjected to measurement of the blood-sugar level in accordance with the same procedure as described in Example 1, while, at the same time, the animals were weighed.

KK-A^y/Ta Jcl mice [5] = assay: Total pancreatic insulin content (Example 3); format: in vivo, mouse
Experimental: as §2

KK-A^y/Ta Jcl mice [6] = assay: Weights of pancreas, liver and kidney at autopsy (Example 3); format: in vivo, mouse
Experimental: as §1

[7] = test system: pancreatic Langerhans' islets; assay: Histopathological analysis of the pancreas (Example 3); format: in vivo, mouse; details: Day 28
Experimental: Histopathological analysis of the pancreas (pathological analysis of the pancreatic Langerhans' islets (α-, β- and δ-cells) was carried out by embedding the tissue in paraffin, followed by thin slicing and respective staining through the Grimelius staining, Gomori's aldehyde-fuchsin staining and Hellman-Hellerstroem' staining.

[8] = Body weight, administration as admixture with food (Example 2); format: in vivo, mouse
Experimental: as §3, §4

[9] = day preceding administration (baseline), 16.8 mg/100 g-food group
[10] = autopsy Day 28, Dose 0.56 (g/100 g-food)
[11] = autopsy Day 28, Dose 1.68 (g/100 g-food)
[12] = autopsy Day 28, Dose 16.8 (g/100 g-food)

C=CCN(CC(=O)O)C(=O)/C(C)=C/c1ccc(C(=O)Oc2ccc(C(=N)N)cc2)cc1 [Test Compound 2, N-allyl-N-{(2E)-3-[4-({4-[amino(imino)methyl]phenoxy}-carbonyl)phenyl]-2-methyl-2-propenoyl}glycine/dimethane-sulfonate]
Change in HbA1C level (in words) (KK-A^y/Ta Jcl mice [1]): decreased
Change in TG level (in words) (KK-A^y/Ta Jcl mice [1]): decreased
Change in blood-sugar level (in words) (KK-A^y/Ta Jcl mice [1]): decreased
Change in plasma glucagon level (in words) (KK-A^y/Ta Jcl mice [1]): drops in the plasma glucagon level
Change in plasma GLP-1 level (in words) (KK-A^y/Ta Jcl mice [1]; 30 min after forced oral administration): plasma GLP-1 increasing effect
Time-course changes in blood-sugar level at satiety vs Control Group (in words, FIG. 1) (KK-A^y/Ta Jcl mice [2]; 5.6 mg/100 g group): significant drop in the blood-sugar level at the end of the test
Time-course changes in blood-sugar level at satiety vs Control Group (in words, FIG. 1) (KK-A^y/Ta Jcl mice [2]; 16.8 mg/100 g group): significant continued drops in the blood-sugar level
Blood-sugar level (KK-A^y/Ta Jcl mice [2]; Dose 0.56 (g/100 g-food)): 524.6 ± 47.3 mg/dL
Blood-sugar level (KK-A^y/Ta Jcl mice [2]; Dose 1.68 (g/100 g-food)): 620.9 ± 79.6 mg/dL
Blood-sugar level (KK-A^y/Ta Jcl mice [2]; Dose 5.6 (g/100 g-food)): 369.7 ± 39.6 mg/dL
Blood-sugar level (KK-A^y/Ta Jcl mice [2]; Dose 16.8 (g/100 g-food)): 251.2 ± 34.7 mg/dL
LTB4 receptor antagonistic action [3]: LTB4 antagonistic action
Blood-sugar level Day 2 (KK-A^y/Ta Jcl mice [4]; 16.8 mg/100 g-food admixture): 286.5 ± 58.3 mg/dL
Blood-sugar level Day 5 (KK-A^y/Ta Jcl mice [4]; 16.8 mg/100 g-food admixture): 314.8 ± 14.4 mg/dL
Blood-sugar level Day 7 (KK-A^y/Ta Jcl mice [4]; 16.8 mg/100 g-food admixture): 291.0 ± 5.1 mg/dL
Blood-sugar level Day 14 (KK-A^y/Ta Jcl mice [4]; 16.8 mg/100 g-food admixture): 248.0 ± 11.5 mg/dL
Blood-sugar level Day 1 (KK-A^y/Ta Jcl mice [4]; [9]): 300.0 ± 18.9 mg/dL
Blood-sugar lowering action (in words) (KK-A^y/Ta Jcl mice [4]; food admixture 16.8 mg/100 g-food, as from Day 5 afterwards): significant blood-sugar lowering action; also recorded: more potent blood-sugar lowering action
Total pancreatic insulin content (in words) (KK-A^y/Ta Jcl mice [5]; Day 28): increase in the total pancreatic insulin content
Total pancreatic insulin content (KK-A^y/Ta Jcl mice [5]; Day 28, Dose 1.68 (g/100 g-food)): 9.40 ± 2.24 µg
Total pancreatic insulin content (KK-A^y/Ta Jcl mice [5]; Day 28, Dose 5.6 (g/100 g-food)): 17.11 ± 2.76 µg
Weight of the kidney (in words) (KK-A^y/Ta Jcl mice [6]; autopsy Day 28): suppressed from rising
Weight of the liver (in words) (KK-A^y/Ta Jcl mice [6]; autopsy Day 28): suppressed from rising
Weight of the pancreas (in words) (KK-A^y/Ta Jcl mice [6]; autopsy Day 28): increased
Weight Kidney (KK-A^y/Ta Jcl mice [6]; [10]): 0.47 ± 0.01 g
Weight Liver (KK-A^y/Ta Jcl mice [6]; [10]): 2.01 ± 0.08 g
Weight Pancreas (KK-A^y/Ta Jcl mice [6]; [10]): 0.342 ± 0.01 g
Weight Kidney (KK-A^y/Ta Jcl mice [6]; [11]): 0.49 ± 0.01 g
Weight Liver (KK-A^y/Ta Jcl mice [6]; [11]): 2.08 ± 0.07 g
Weight Pancreas (KK-A^y/Ta Jcl mice [6]; [11]): 0.41 ± 0.02 g
Weight Kidney (KK-A^y/Ta Jcl mice [6]; [12]): 0.41 ± 0.01 g
Weight Liver (KK-A^y/Ta Jcl mice [6]; [12]): 1.52 ± 0.06 g
Weight Pancreas (KK-A^y/Ta Jcl mice [6]; [12]): 0.45 ± 0.03 g
Number of pancreatic B-cells (postmortem findings) [7]: increase the number of pancreatic B-cells
Size of Langerhans' cells of the pancreatic islets (postmortem findings) [7]: enlarge the Langerhans' cells of the pancreatic islets
Body weight Day 2 ([8]; 16.8 mg/100 g-food admixture): 29.8 ± 0.7 g
Body weight Day 5 ([8]; 16.8 mg/100 g-food admixture): 30.6 ± 0.8 g
Body weight Day 7 ([8]; 16.8 mg/100 g-food admixture): 32.4 ± 1.0 g
Body weight Day 14 ([8]; 16.8 mg/100 g-food admixture): 34.6 ± 1.3 g
Body weight Day 1 [8, 9]: 30.6 ± 0.6 g
Effect on body weight (in words) ([8]; food admixture 16.8 mg/100 g-food, time course): not observed to produce any difference from the control group; also recorded: did not show any body-weight elevating actions
